# Test results reported in patent US8546563B2, “Compounds which modulate the CB2 receptor” (Boehringer Ingelheim International GmbH, priority 2007, dated 2013).
# Molecular target: T1, human CB2R (Homo sapiens, UniProt P34972)
# T1 construct: host or cells: CHO cells
# Test: CB2R mediated modulation of cAMP synthesis
# Assay type: cell-based
# Conditions: CHO cells expressing human CB2R; inhibition of forskolin-stimulated cAMP synthesis (agonist); read-out: CB2 EC50
# Method: B. CB2R Mediated Modulation of cAMP Synthesis:
# Compounds of the invention were evaluated for their CB2 agonist or inverse agonistic activity in accordance with the following experimental method.
# CHO cells expressing human CB2R (Euroscreen) were plated at a density of 5000 cells per well in 384 well plates and incubated overnight at 37° C. After removing the media, the cells were treated with test compounds diluted in stimulation buffer containing 1 mM IBMX, 0.25% BSA and 10 uM Forskolin. The assay was incubated for 30 minutes at 37° C. Cells were lysed and the cAMP concentration was measured using DiscoverX-XS cAMP kit, following the manufacturer's protocol. In this setting, agonists will decrease forskolin induced production of cAMP while inverse agonists will further increase forskolin induced production of cAMP. EC50 of agonists were calculated as follows. The maximal amount of cAMP produced by forskolin compared to the level of cAMP inhibited by 1 uM CP55940 is defined as 100%. The EC50 value of each test compound was determined as the concentration at which 50% of the forskolin-stimulated cAMP synthesis was inhibited. Data was analyzed using a four-parameter logistic model. (Model 205 of XLfit 4.0).
# T1 sequence (P34972 whole entry): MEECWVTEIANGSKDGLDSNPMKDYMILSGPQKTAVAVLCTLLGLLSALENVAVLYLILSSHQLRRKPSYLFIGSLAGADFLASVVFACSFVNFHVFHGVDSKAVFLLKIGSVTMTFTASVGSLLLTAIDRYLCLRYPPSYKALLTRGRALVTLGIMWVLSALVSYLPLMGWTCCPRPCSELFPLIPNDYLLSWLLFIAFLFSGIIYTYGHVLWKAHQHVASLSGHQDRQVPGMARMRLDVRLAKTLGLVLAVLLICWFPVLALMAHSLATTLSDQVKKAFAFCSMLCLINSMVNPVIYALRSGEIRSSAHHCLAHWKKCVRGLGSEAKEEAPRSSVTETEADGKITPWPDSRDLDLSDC
row,Structure (SMILES),EC50 [µM]
1,CC1CCCCN1S(=O)(=O)C(C)(C)C(=O)Nc1cc(C(C)(C)C)on1 (stereo not shown),0.097
2,CC(C)(C(=O)Nc1nsc(-c2ccccc2)n1)S(=O)(=O)N1CCC1,0.072
3,"CCc1sc(NC(=O)C(C)(C)S(=O)(=O)N2CCC2)nc1-c1ccccc1 [Example 54, 2-(Azetidine-1-sulfonyl)-N-(5-ethyl-4-phenyl-thiazol-2-yl)-2-methyl-propionamide]",0.0066
4,"CC(C)c1cc(NC(=O)C(C)(C)S(=O)(=O)N2CCC2)on1 [Example 74, 2-(Azetidine-1-sulfonyl)-N-(3-isopropyl-isoxazol-5-yl)-2-methyl-propionamide]",0.108
5,CC(C)(C(=O)Nc1nnc(-c2ccccc2)[nH]1)S(=O)(=O)N1CCC1,0.011
6,CC(C)(C)c1cc(NC(=O)C(C)(C)S(=O)(=O)N2CCOCC2)no1 [Example 40],0.047
7,"CC(C)(C)c1cc(NC(=O)C(C)(C)S(=O)(=O)N2CCCCC2)no1 [Example 9, N-(5-tert-Butyl-isoxazol-3-yl)-2-methyl-2-(piperidine-1-sulfonyl)-propionamide]",0.0065
8,CC(C)(C(=O)Nc1nc2c(s1)CCCC2)S(=O)(=O)N1CCC1,0.062
9,"CC(C)(C)c1cc(NC(=O)C(C)(C)S(=O)(=O)N2CCOCC2)on1 [Example 85, N-(3-tert-Butyl-isoxazol-5-yl)-2-methyl-2-(morpholine-4-sulfonyl)-propionamide]",0.015
10,"CC(C)(C)c1cccc(NC(=O)C(C)(C)S(=O)(=O)N2CCC2)c1 [Example 65, 2-(Azetidine-1-sulfonyl)-N-(3-tert-butyl-phenyl)-2-methyl-propionamide]",0.017
11,CN(c1ccccc1)S(=O)(=O)C(C)(C)C(=O)Nc1nc(C(C)(C)C)cs1 [N-(4-tert-Butyl-thiazol-2-yl)-2-methyl-2-(methyl-phenyl-sulfamoyl)-propionamide],0.042
12,"CC(C)(C(=O)Nc1nc(C2CCCCC2)cs1)S(=O)(=O)N1CCC1 [Example 55, 2-(Azetidine-1-sulfonyl)-N-(4-cyclohexyl-thiazol-2-yl)-2-methyl-propionamide]",0.022
13,"CC(C)(C)c1ccc(NC(=O)C(C)(C)S(=O)(=O)N2CCC2)cc1 [Example 58, 2-(Azetidine-1-sulfonyl)-N-(4-tert-butyl-phenyl)-2-methyl-propionamide]",0.0031
14,CC(C)(C(=O)Nc1ccc(C(F)(F)F)cc1F)S(=O)(=O)N1CCC1,0.086
15,CC(C)(C(=O)Nc1nnc(-c2ccccc2)[nH]1)S(=O)(=O)N1CCC(F)C1 (stereo not shown),0.0051
16,"CCCNS(=O)(=O)C(C)(C)C(=O)Nc1cc(C(C)(C)C)on1 [Example 35, N-(5-tert-Butyl-isoxazol-3-yl)-2-methyl-2-propylsulfamoyl-propionamide]",0.033
17,Cn1nc(C(C)(C)C)cc1NC(=O)C(C)(C)S(=O)(=O)N1CCOCC1,0.079
18,CC(C)(C)c1cc(NC(=O)C(C)(C)S(=O)(=O)N2CC(F)(F)C2)no1,0.005
19,"CC(C)(C)c1cc(NC(=O)C(C)(C)S(=O)(=O)N2CCCC2)no1 [Example 6, N-(5-tert-Butyl-isoxazol-3-yl)-2-methyl-2-(pyrrolidine-1-sulfonyl)-propionamide]",0.0013
20,"CCCCNS(=O)(=O)C(C)(C)C(=O)Nc1cc(C(C)(C)C)on1 [Example 24, N-(5-tert-Butyl-isoxazol-3-yl)-2-butylsulfamoyl-2-methyl-propionamide]",0.01

row,Structure (SMILES),EC50 [µM]
1,"CC(C)(C)c1cc(NC(=O)C(C)(C)S(=O)(=O)NC2CC2)no1 [Example 7, N-(5-tert-Butyl-isoxazol-3-yl)-2-cyclopropylsulfamoyl-2-methyl-propionamide]",0.058
2,CC(C)(C)c1cc(NC(=O)C(C)(C)S(=O)(=O)N2CC[C@@H](F)C2)no1,0.0057
3,"CCC(C)c1cc(NC(=O)C(C)(C)S(=O)(=O)N2CCC2)on1 (stereo not shown) [Example 73, 2-(Azetidine-1-sulfonyl)-N-(3-sec-butyl-isoxazol-5-yl)-2-methyl-propionamide]",0.014
4,"CC(C)(C)c1cc(NC(=O)C(C)(C)S(=O)(=O)N2CCC2)ccn1 [Example 82, 2-(Azetidine-1-sulfonyl)-N-(2-tert-butyl-pyridin-4-yl)-2-methyl-propionamide]",0.037
5,"CCCCN(C)S(=O)(=O)C(C)(C)C(=O)Nc1cc(C(C)(C)C)on1 [Example 41, N-(5-tert-Butyl-isoxazol-3-yl)-2-(butyl-methyl-sulfamoyl)-2-methyl-propionamide]",0.0017
6,"CC(C)(C)c1cc(NC(=O)C(C)(C)S(=O)(=O)NC2CCCC2)no1 [Example 10, N-(5-tert-Butyl-isoxazol-3-yl)-2-cyclopentylsulfamoyl-2-methyl-propionamide]",0.013
7,Cc1nc(NC(=O)C(C)(C)S(=O)(=O)N2CCC2)sc1C(C)(C)C,0.0025
8,CC(C)(C(=O)Nc1nc(-c2ccc(F)cc2)cs1)S(=O)(=O)N1CCC1,0.019
9,CC(C)(C)c1cc(NC(=O)C(C)(C)S(=O)(=O)N2CCC(F)C2)sn1 (stereo not shown),0.083
10,"CCCCNS(=O)(=O)C(C)(C)C(=O)Nc1nc(C(C)(C)C)cs1 [Example 25, 2-Butylsulfamoyl-N-(4-tert-butyl-thiazol-2-yl)-2-methyl-propionamide]",0.032
11,"CC(C)(C)c1cc(NC(=O)C(C)(C)S(=O)(=O)N2CCC(F)(F)CC2)no1 [N-(5-tert-Butyl-isoxazol-3-yl)-2-(4,4-difluoro-piperidine-1-sulfonyl)-2-methyl-propionamide]",0.0025
12,CC(C)(C(=O)Nc1nnc(-c2ccccc2)[nH]1)S(=O)(=O)N1CCOCC1,0.086
13,"CC(C)(C(=O)Nc1nc2ccccc2s1)S(=O)(=O)N1CCC1 [Example 50, 2-(Azetidine-1-sulfonyl)-N-benzothiazol-2-yl-2-methyl-propionamide]",0.026
14,"CC(C)(C)c1cc(NC(=O)C(C)(C)S(=O)(=O)N2CCC2)no1 [Example 5, 2-(Azetidine-1-sulfonyl)-N-(5-tert-butyl-isoxazol-3-yl)-2-methyl-propionamide]",0.0036
15,"CC(C)(C)c1csc(NC(=O)C(C)(C)S(=O)(=O)N2CCC2)n1 [Example 44, 2-(Azetidine-1-sulfonyl)-N-(4-tert-butyl-thiazol-2-yl)-2-methyl-propionamide]",0.014
16,CC(C)(C(=O)Nc1nc(-c2ccc(Cl)cc2)cs1)S(=O)(=O)N1CCC1,0.0089
17,Cc1sc(NC(=O)C(C)(C)S(=O)(=O)N2CCC2)nc1-c1ccc(F)cc1,0.017
18,"CC(C)(C(=O)Nc1nc(-c2cccs2)cs1)S(=O)(=O)N1CCC1 [Example 53, 2-(Azetidine-1-sulfonyl)-2-methyl-N-(4-thiophen-2-yl-thiazol-2-yl)-propionamide]",0.041
19,"CC(C)(C)c1cc(NC(=O)C(C)(C)S(=O)(=O)N2CCC2)on1 [Example 47, 2-(Azetidine-1-sulfonyl)-N-(3-tert-butyl-isoxazol-5-yl)-2-methyl-propionamide]",0.02
20,"CC(C)(C)c1cc(NC(=O)C(C)(C)S(=O)(=O)NC2CCCCC2)no1 [Example 8, N-(5-tert-Butyl-isoxazol-3-yl)-2-cyclohexylsulfamoyl-2-methyl-propionamide]",0.0024
